For orientation: Ki means the dissociation constant of the complex between target and ligand, obtained from inhibition or displacement. The low end stands for a stronger hold on the target, the high end for a looser hold on the target.

This test addresses T1, human CCR5 chemokine receptor (Homo sapiens, UniProt P51681).
T1 construct: expressed in transfected cells; host or cells: NIH 3T3 cells (murine), membranes
As to the kind of experiment: CCR5 membrane binding assay (inhibition of RANTES binding). The settings on record: 125I-RANTES; membranes from NIH 3T3 cells expressing the human CCR5 chemokine receptor; one hour incubation. How it is done:
CCR5 Membrane Binding Assay:
A high throughput screen utilizing a CCR5 membrane binding assay identifies inhibitors of RANTES binding. This assay utilizes membranes prepared from NIH 3T3 cells expressing the human CCR5 chemokine receptor which have the ability to bind to RANTES, a natural ligand for the receptor. […] Compounds are serially diluted over a wide range of 0.001 ug/ml to 1 ug/ml and tested in triplicates. Reaction cocktails are harvested through glass fiber filters, and washed thoroughly.

T1 sequence (P51681 whole entry): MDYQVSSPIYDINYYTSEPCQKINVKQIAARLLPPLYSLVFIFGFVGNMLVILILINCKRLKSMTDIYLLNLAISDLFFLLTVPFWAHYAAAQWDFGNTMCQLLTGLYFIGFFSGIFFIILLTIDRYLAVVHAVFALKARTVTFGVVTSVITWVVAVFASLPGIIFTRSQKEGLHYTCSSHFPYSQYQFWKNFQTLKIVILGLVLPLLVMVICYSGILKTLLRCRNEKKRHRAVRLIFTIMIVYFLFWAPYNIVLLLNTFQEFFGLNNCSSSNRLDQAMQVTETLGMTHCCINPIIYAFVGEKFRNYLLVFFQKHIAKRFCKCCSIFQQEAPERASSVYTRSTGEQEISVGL

`Cc1cccc(C)c1C(=O)N1CCC(N2CCN(C(C)c3ccc(I)cc3)C(C)C2)CC1` (centres unmarked) [Example 11] displayed a Ki of 10.5 nM. The value for `Cc1cccc(C)c1C(=O)N1CCC(N2CCN(C(C)c3ccc(-c4ccccc4)cc3)C(C)C2)CC1` (centres unmarked) [Example 16] was 60 nM.

The values are drawn from patent EP1632479A2, “Piperazine derivatives useful as ccr5 antagonists” (SCHERING CORPORATION, priority 1999, dated 2000).
